According to ChEMBL document CHEMBL4507281, “Data for DCP probe BI-4394” (2021):

Columns and labels:
D(1B) dopamine receptor = D(1B) dopamine receptor (Homo sapiens, UniProt P21918); assay: GPCRScan assay: inhibition of D5; set-up: radioligand conc. used [nm] 2.0 – 3.0, parental cells HEKT
[1] = target: AP2-associated protein kinase 1 (Homo sapiens) (UniProt Q2M2I8); details: Compound concentration 100.0 nM
[2] = test system: ALK tyrosine kinase receptor (Homo sapiens), Q9UM73 [L1196M]; details: Compound concentration 100.0 nM
[3] = target: 5'-AMP-activated protein kinase catalytic subunit alpha-1 (Homo sapiens) (UniProt Q13131); details: Compound concentration 100.0 nM
[4] = target: Mitogen-activated protein kinase kinase kinase 5 (Homo sapiens) (UniProt Q99683); details: Compound concentration 100.0 nM
[5] = target: Protein-tyrosine kinase 6 (Homo sapiens) (UniProt Q13882); details: Compound concentration 100.0 nM
[6] = target: Calcium/calmodulin-dependent protein kinase type 1 (Homo sapiens) (UniProt Q14012); details: Compound concentration 100.0 nM
[7] = target: Calcium/calmodulin-dependent protein kinase type 1G (Homo sapiens) (UniProt Q96NX5); details: Compound concentration 100.0 nM
[8] = target: Cyclin-dependent kinase-like 2 (Homo sapiens) (UniProt Q92772); details: Compound concentration 100.0 nM
[9] = target: Serine/threonine-protein kinase Chk2 (Homo sapiens) (UniProt O96017); details: Compound concentration 100.0 nM
[10] = target: Macrophage colony-stimulating factor 1 receptor (Homo sapiens) (UniProt P07333); details: Compound concentration 100.0 nM
[11] = target: Casein kinase I isoform alpha-like (Homo sapiens) (UniProt Q8N752); details: Compound concentration 100.0 nM
[12] = target: Death-associated protein kinase 2 (Homo sapiens) (UniProt Q9UIK4); details: Compound concentration 100.0 nM
[13] = target: Serine/threonine-protein kinase DCLK3 (Homo sapiens) (UniProt Q9C098); details: Compound concentration 100.0 nM
[14] = target: Epithelial discoidin domain-containing receptor 1 (Homo sapiens) (UniProt Q08345); details: Compound concentration 100.0 nM
[15] = test system: Epidermal growth factor receptor (Homo sapiens), P00533 [L858R,T790M]; details: Compound concentration 100.0 nM
[16] = test system: Epidermal growth factor receptor (Homo sapiens), P00533 [UNDEFINED MUTATION]; details: Compound concentration 100.0 nM
[17] = target: Serine/threonine-protein kinase/endoribonuclease IRE1 (Homo sapiens) (UniProt O75460); details: Compound concentration 100.0 nM
[18] = target: Tyrosine-protein kinase Fer (Homo sapiens) (UniProt P16591); details: Compound concentration 100.0 nM
[19] = target: Tyrosine-protein kinase Fes/Fps (Homo sapiens) (UniProt P07332); details: Compound concentration 100.0 nM
[20] = target: Fibroblast growth factor receptor 1 (Homo sapiens) (UniProt P11362); details: Compound concentration 100.0 nM
[21] = target: Rhodopsin kinase GRK1 (Homo sapiens) (UniProt Q15835); details: Compound concentration 100.0 nM
[22] = target: G protein-coupled receptor kinase 4 (Homo sapiens) (UniProt P32298); details: Compound concentration 100.0 nM
[23] = target: Homeodomain-interacting protein kinase 4 (Homo sapiens) (UniProt Q8NE63); details: Compound concentration 100.0 nM
[24] = target: Serine/threonine-protein kinase ICK (Homo sapiens) (UniProt Q9UPZ9); details: Compound concentration 100.0 nM
[25] = target: Tyrosine-protein kinase JAK1 (Homo sapiens) (UniProt P23458); details: Compound concentration 100.0 nM
[26] = test system: Mast/stem cell growth factor receptor Kit (Homo sapiens), P10721 [V559D,V654A]; details: Compound concentration 100.0 nM
[27] = target: Serine/threonine-protein kinase LATS1 (Homo sapiens) (UniProt O95835); details: Compound concentration 100.0 nM
[28] = target: Mitogen-activated protein kinase kinase kinase 4 (Homo sapiens) (UniProt Q9Y6R4); details: Compound concentration 100.0 nM
[29] = target: Maternal embryonic leucine zipper kinase (Homo sapiens) (UniProt Q14680); details: Compound concentration 100.0 nM
[30] = target: Myosin light chain kinase, smooth muscle (Homo sapiens) (UniProt Q15746); details: Compound concentration 100.0 nM
[31] = target: Serine/threonine-protein kinase 38-like (Homo sapiens) (UniProt Q9Y2H1); details: Compound concentration 100.0 nM
[32] = target: Serine/threonine-protein kinase Nek4 (Homo sapiens) (UniProt P51957); details: Compound concentration 100.0 nM
[33] = target: Serine/threonine-protein kinase PAK 4 (Homo sapiens) (UniProt O96013); details: Compound concentration 100.0 nM
[34] = test system: Phosphatidylinositol 4,5-bisphosphate 3-kinase catalytic subunit alpha isoform (Homo sapiens), P42336 [E545K]; details: Compound concentration 100.0 nM
[35] = target: Serine/threonine-protein kinase SIK3 (Homo sapiens) (UniProt Q9Y2K2); details: Compound concentration 100.0 nM
[36] = target: RAF proto-oncogene serine/threonine-protein kinase (Homo sapiens) (UniProt P04049); details: Compound concentration 100.0 nM
[37] = target: Receptor-interacting serine/threonine-protein kinase 4 (Homo sapiens) (UniProt P57078); details: Compound concentration 100.0 nM
[38] = target: Ribosomal protein S6 kinase alpha-4 (Homo sapiens) (UniProt O75676); details: Compound concentration 100.0 nM
[39] = target: Serine/threonine-protein kinase 36 (Homo sapiens) (UniProt Q9NRP7); details: Compound concentration 100.0 nM
[40] = target: TRAF2 and NCK-interacting protein kinase (Homo sapiens) (UniProt Q9UKE5); details: Compound concentration 100.0 nM
[41] = target: High affinity nerve growth factor receptor (Homo sapiens) (UniProt P04629); details: Compound concentration 100.0 nM
[42] = target: Serine/threonine-protein kinase 32C (Homo sapiens) (UniProt Q86UX6); details: Compound concentration 100.0 nM
[43] = target: Tyrosine-protein kinase Yes (Homo sapiens) (UniProt P07947); details: Compound concentration 100.0 nM
[44] = target: Histamine H4 receptor (Homo sapiens) (UniProt Q9H3N8); details: Compound concentration 10.0 uM

Sequence of Calcium/calmodulin-dependent protein kinase type 1 (Homo sapiens) (Q14012 whole entry, looked up): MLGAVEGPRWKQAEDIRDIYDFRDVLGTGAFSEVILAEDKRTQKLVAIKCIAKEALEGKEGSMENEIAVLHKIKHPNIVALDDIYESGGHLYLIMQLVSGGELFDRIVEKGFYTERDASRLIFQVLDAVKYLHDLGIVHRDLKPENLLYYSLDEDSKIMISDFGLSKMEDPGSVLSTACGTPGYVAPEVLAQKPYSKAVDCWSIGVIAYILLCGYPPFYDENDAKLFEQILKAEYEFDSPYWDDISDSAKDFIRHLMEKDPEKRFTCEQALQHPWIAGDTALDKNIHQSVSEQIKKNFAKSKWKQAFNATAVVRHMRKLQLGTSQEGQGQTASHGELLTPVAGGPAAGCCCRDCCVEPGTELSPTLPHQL
Sequence of D(1B) dopamine receptor (P21918 whole entry): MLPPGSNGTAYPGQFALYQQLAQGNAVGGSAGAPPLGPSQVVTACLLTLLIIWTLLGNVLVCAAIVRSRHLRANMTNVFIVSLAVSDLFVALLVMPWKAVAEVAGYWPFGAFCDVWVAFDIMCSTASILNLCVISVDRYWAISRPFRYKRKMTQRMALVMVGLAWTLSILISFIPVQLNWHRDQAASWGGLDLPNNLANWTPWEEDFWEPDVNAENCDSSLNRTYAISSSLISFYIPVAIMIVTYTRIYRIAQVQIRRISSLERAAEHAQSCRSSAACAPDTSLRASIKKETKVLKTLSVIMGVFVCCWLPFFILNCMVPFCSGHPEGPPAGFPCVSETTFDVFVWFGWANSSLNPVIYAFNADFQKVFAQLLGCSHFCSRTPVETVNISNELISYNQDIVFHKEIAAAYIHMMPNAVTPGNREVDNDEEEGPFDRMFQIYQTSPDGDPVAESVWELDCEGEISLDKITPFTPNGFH
Sequence of Phosphatidylinositol 4,5-bisphosphate 3-kinase catalytic subunit alpha isoform (Homo sapiens), P42336 [E545K] (P42336 whole entry E545K, canonical isoform): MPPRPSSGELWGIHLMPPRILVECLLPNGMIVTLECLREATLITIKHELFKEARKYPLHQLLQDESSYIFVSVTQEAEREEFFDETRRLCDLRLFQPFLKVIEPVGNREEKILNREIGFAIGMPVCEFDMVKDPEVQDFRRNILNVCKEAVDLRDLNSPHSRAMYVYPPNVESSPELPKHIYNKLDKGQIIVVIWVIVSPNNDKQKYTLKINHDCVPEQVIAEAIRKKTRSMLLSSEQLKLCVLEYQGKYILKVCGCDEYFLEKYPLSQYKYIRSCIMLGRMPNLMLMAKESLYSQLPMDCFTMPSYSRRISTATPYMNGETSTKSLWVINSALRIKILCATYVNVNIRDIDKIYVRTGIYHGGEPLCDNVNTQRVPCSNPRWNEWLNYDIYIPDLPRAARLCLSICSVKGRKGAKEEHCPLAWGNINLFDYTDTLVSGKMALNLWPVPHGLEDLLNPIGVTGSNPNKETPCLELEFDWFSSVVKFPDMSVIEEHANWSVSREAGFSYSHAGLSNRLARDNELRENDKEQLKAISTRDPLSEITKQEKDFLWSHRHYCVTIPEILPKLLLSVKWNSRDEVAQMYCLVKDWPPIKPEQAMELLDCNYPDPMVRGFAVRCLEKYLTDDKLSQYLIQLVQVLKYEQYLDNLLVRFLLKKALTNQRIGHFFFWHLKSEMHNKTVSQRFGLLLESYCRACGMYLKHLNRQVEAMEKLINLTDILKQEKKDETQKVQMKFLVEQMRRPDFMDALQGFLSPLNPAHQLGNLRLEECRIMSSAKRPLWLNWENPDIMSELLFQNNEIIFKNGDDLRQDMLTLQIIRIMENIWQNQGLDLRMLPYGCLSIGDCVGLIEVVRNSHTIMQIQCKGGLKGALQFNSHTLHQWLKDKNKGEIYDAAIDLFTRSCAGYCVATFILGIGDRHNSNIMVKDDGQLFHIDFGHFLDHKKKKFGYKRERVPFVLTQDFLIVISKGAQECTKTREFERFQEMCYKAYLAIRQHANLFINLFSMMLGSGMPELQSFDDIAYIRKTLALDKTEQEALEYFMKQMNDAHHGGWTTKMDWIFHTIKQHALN
Sequence of Tyrosine-protein kinase Fes/Fps (Homo sapiens) (P07332 whole entry): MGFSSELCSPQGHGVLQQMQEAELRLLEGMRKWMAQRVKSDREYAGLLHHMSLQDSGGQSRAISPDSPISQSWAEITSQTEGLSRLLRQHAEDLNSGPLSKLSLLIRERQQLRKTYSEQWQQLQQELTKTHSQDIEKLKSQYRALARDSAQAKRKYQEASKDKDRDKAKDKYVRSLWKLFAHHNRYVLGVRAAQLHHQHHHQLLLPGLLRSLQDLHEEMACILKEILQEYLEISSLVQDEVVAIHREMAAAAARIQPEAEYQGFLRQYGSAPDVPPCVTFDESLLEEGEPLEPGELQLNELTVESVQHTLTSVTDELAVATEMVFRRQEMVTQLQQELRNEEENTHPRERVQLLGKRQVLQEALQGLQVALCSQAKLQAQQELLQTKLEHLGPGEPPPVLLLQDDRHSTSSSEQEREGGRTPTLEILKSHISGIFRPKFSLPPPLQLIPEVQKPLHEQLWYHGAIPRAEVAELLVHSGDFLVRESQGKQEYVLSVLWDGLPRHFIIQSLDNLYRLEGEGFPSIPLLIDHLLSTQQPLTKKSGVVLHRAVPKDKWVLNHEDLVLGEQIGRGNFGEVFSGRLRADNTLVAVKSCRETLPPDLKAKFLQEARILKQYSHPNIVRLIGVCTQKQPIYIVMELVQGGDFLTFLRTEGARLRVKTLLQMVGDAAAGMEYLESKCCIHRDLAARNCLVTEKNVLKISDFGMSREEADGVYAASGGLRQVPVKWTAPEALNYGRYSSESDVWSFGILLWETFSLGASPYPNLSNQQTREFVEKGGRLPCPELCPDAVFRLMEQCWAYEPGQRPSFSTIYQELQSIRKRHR
Sequence of Serine/threonine-protein kinase PAK 4 (Homo sapiens) (O96013 whole entry, looked up, canonical isoform): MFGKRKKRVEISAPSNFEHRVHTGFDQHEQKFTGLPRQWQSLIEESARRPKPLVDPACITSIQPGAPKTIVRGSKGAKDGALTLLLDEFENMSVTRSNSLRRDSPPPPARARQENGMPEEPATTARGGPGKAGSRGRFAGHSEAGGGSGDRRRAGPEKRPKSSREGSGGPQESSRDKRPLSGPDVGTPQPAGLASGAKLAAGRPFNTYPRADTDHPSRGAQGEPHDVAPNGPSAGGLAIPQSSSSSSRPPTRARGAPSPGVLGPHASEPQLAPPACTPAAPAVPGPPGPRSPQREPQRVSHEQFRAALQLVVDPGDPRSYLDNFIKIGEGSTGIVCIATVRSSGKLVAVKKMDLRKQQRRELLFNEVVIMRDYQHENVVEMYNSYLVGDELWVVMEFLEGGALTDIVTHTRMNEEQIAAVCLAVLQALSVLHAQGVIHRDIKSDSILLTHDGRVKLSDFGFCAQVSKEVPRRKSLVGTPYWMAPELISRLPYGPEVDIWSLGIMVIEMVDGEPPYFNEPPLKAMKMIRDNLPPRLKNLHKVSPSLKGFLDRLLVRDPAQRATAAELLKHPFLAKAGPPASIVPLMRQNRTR
Sequence of Tyrosine-protein kinase Fer (Homo sapiens) (P16591 whole entry, looked up): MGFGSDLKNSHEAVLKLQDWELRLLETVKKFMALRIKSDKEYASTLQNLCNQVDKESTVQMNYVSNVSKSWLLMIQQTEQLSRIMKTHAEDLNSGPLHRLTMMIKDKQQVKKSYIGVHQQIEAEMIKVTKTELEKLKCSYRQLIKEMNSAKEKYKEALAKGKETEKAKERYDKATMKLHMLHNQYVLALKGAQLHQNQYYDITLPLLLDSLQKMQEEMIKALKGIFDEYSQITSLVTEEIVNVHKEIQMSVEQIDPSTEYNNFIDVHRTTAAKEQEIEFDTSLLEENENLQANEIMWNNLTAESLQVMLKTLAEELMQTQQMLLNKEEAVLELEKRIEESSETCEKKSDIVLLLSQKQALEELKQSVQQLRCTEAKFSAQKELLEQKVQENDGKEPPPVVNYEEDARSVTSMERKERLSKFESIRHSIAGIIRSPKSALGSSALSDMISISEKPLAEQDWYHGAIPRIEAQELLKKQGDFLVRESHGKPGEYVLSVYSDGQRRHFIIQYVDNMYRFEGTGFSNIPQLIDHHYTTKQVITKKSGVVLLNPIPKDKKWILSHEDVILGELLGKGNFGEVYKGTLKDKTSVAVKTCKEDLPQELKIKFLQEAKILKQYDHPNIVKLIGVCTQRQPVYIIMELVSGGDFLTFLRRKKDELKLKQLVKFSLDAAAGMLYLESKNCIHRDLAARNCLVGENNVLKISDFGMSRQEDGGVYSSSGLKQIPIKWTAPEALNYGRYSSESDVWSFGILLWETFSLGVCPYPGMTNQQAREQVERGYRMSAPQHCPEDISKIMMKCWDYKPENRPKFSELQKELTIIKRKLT
Sequence of Serine/threonine-protein kinase DCLK3 (Homo sapiens) (Q9C098 whole entry, the tested form may be a part): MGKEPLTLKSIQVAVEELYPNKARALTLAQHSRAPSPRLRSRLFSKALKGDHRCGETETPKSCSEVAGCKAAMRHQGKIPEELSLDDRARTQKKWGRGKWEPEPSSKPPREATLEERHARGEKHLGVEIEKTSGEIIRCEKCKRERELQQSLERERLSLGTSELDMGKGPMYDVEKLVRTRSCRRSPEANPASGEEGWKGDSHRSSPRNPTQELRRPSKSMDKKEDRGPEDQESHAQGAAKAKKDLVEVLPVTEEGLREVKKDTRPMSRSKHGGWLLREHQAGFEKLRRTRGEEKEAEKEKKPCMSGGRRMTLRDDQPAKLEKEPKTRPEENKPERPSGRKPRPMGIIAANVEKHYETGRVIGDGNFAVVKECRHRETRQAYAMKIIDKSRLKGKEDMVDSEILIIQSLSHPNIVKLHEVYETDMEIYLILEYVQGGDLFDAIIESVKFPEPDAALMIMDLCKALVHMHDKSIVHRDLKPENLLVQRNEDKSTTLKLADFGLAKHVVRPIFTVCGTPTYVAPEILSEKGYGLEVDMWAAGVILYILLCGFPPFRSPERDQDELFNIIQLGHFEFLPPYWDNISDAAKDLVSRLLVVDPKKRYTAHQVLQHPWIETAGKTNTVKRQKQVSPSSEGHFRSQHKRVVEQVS

CCOC(=O)c1cc2cc(-c3cc(C(=O)NCc4ccc(C(=O)O)cc4)nn3C)ccc2[nH]1 [BI 4394]
inactive: residual activity [1] 100% | residual activity [2] 98% | residual activity [3] 100% | residual activity [4] 98% | residual activity [5] 98% | residual activity [6] 87% | residual activity [7] 100% | residual activity [8] 88% | residual activity [9] 100% | residual activity [10] 94% | residual activity [11] 100% | residual activity [12] 92% | residual activity [13] 73% | residual activity [14] 100% | residual activity [15] 100% | residual activity [16] 100% | residual activity [17] 90% | residual activity [18] 100% | residual activity [19] 94% | residual activity [20] 86% | residual activity [21] 95% | residual activity [22] 100% | residual activity [23] 87% | residual activity [24] 85% | residual activity [25] 100% | residual activity [26] 100% | residual activity [27] 97% | residual activity [28] 91% | residual activity [29] 100% | residual activity [30] 100% | residual activity [31] 72% | residual activity [32] 81% | residual activity [33] 100% | residual activity [34] 100% | residual activity [35] 100% | residual activity [36] 100% | residual activity [37] 82% | residual activity [38] 88% | residual activity [39] 97% | residual activity [40] 100% | residual activity [41] 89% | residual activity [42] 100% | residual activity [43] 100% | inhibition [44] -1.52%
10 µM: Ki (D(1B) dopamine receptor)

Cn1nc(C(=O)NCc2ccc(C(=O)O)cc2)cc1-c1ccc2[nH]ccc2c1 [BI 4395]
10 µM: Ki (D(1B) dopamine receptor)
inactive: residual activity [1] 90% | residual activity [2] 100% | residual activity [3] 81% | residual activity [4] 86% | residual activity [5] 89% | residual activity [6] 95% | residual activity [7] 89% | residual activity [8] 78% | residual activity [9] 100% | residual activity [10] 98% | residual activity [11] 94% | residual activity [12] 96% | residual activity [13] 96% | residual activity [14] 89% | residual activity [15] 92% | residual activity [16] 94% | residual activity [17] 83% | residual activity [18] 93% | residual activity [19] 95% | residual activity [20] 84% | residual activity [21] 100% | residual activity [22] 96% | residual activity [23] 100% | residual activity [24] 72% | residual activity [25] 93% | residual activity [26] 95% | residual activity [27] 100% | residual activity [28] 86% | residual activity [29] 86% | residual activity [30] 62% | residual activity [31] 99% | residual activity [32] 84% | residual activity [33] 86% | residual activity [34] 87% | residual activity [35] 94% | residual activity [36] 70% | residual activity [37] 68% | residual activity [38] 73% | residual activity [39] 93% | residual activity [40] 97% | residual activity [41] 74% | residual activity [42] 100% | residual activity [43] 84% | inhibition [44] -6.14%
